Laboratory results published in US10174037B2, “Dihydropyrazolopyrimidinone compounds as PDE2 inhibitors” (Merck Sharp & Dohme Corp., priority 2015, dated 2019).

Assays:
human PDE2A1 = human PDE2A1 (Homo sapiens (Human), UniProt O00408); assay: PDE selectivity IMAP FP assay, human PDE2A1; type: biochemical; conditions: Human PDE2; Lab B; read-out: Human PDE2 Ki (nM) Lab B
Outline: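 IMAP fluorescence polarization assay; PDE2 substrate 50 nM FAM-cAMP containing 1000 nM cGMP, enzyme diluted for 20% substrate conversion, in 10 mM Tris HCl pH 7.2, 10 mM MgCl2, 1 mM DTT. Reaction 60 min at room temperature, stopped with IMAP binding solution; polarization read after 1 h. Ki reported.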

Rhesus PDE2A3 = Rhesus PDE2A3 (Macaca mulatta, UniProt B3VTJ2); assay: PDE2 fluorescence polarization (IMAP FP) assay, rhesus PDE2A3; type: biochemical, rhesus macaque; conditions: Lab B, read-out: Rhesus PDE2 Ki (nM) Lab B
Sequence of Rhesus PDE2A3 (B3VTJ2 1-941): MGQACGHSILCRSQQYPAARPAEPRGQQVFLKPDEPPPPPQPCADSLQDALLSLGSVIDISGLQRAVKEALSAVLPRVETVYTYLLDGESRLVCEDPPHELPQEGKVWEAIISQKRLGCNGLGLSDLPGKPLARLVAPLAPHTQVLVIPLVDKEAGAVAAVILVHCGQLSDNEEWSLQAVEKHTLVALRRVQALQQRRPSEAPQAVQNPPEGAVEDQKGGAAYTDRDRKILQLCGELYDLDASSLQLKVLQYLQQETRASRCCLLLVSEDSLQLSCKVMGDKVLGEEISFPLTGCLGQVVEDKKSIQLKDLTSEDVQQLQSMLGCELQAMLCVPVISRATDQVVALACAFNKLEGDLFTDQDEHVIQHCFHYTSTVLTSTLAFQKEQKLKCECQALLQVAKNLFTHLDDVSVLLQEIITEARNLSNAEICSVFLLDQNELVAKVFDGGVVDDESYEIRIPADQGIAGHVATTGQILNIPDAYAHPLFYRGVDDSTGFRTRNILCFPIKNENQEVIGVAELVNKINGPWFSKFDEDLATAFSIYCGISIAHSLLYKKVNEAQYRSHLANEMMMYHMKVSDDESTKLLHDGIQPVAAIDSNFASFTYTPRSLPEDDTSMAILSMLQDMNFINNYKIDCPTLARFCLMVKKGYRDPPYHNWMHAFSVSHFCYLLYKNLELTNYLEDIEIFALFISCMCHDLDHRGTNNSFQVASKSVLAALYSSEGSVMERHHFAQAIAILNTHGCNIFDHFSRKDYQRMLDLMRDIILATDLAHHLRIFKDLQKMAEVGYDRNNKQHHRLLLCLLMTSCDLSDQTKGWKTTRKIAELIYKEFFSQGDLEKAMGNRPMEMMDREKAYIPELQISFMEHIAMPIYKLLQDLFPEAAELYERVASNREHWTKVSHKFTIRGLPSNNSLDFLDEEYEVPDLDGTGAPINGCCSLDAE

Sequence of human PDE2A1 (O00408 other isoform, or with tags, fused parts or gaps): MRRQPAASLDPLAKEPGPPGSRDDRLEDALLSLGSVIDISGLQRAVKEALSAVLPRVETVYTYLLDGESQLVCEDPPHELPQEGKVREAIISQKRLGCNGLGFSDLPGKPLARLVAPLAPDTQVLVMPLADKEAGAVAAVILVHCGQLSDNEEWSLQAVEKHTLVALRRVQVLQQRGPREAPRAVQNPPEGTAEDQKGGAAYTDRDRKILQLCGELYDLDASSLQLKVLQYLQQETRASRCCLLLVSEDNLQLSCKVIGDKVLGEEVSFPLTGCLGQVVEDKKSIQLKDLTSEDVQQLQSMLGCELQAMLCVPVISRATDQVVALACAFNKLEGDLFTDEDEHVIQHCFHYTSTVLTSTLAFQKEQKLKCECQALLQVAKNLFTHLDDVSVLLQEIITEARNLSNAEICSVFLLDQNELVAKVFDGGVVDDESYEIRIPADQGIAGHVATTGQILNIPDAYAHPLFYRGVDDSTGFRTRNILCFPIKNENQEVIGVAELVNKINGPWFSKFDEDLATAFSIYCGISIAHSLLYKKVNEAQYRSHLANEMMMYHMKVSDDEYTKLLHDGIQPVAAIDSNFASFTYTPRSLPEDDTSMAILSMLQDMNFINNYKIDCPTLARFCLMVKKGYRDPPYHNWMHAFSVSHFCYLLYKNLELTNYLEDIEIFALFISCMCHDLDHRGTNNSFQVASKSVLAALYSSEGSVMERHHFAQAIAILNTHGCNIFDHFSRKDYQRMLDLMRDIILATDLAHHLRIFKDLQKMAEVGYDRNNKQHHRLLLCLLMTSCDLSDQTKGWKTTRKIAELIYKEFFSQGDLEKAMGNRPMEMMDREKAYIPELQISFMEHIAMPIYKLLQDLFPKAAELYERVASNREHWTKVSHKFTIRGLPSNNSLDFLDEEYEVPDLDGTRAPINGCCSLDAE

SMILES | Ki (human PDE2A1) | Ki (Rhesus PDE2A3)
CN(C)c1nc2c(c(CO)nn2C(c2ccc(C(F)(F)F)cc2F)C2CC2)c(=O)[nH]1 (single isomer, unassigned) [Example 134, (R)- or (S)-1-(Cyclopropyl(2-fluoro-4-(trifluoromethyl)phenyl)methyl)-6-(dimethylamino)-3-(hydroxymethyl)-1H-pyrazolo[3,4-d]pyrimidin-4(5H)-one] | 0.047 nM | 0.05 nM
CC(C)C(c1ccc(C(C)(F)F)cc1)n1nc(CO)c2c(=O)[nH]c(N(C)C)nc21 (single isomer, unassigned) [Example 138, (R)- or (S)-1-(1-(4-(1,1-Difluoroethyl)phenyl)-2-methylpropyl)-6-(dimethylamino)-3-(hydroxymethyl)-1H-pyrazolo[3,4-d]pyrimidin-4(5H)-one] | 0.19 nM | 0.41 nM
CC(C)C(c1ccc(C(F)(F)F)c(F)c1)n1nc(CO)c2c(=O)[nH]c(N(C)C)nc21 (single isomer, unassigned) [Example 142, (R)- or (S)-6-(Dimethylamino)-1-(1-(3-fluoro-4-(trifluoromethyl)phenyl)-2-methylpropyl)-3-(hydroxymethyl)-1H-pyrazolo[3,4-d]pyrimidin-4(5H)-one] | 0.19 nM | 0.29 nM
CC(C)C(c1ccc(C(F)(F)F)c(F)c1)n1nc(CO)c2c(=O)[nH]c(N(C)C)nc21 (single isomer, unassigned) [Example 143, (S)- or (R)-6-(Dimethylamino)-1-(1-(3-fluoro-4-(trifluoromethyl)phenyl)-2-methylpropyl)-3-(hydroxymethyl)-1H-pyrazolo[3,4-d]pyrimidin-4(5H)-one] | 0.068 nM | 0.063 nM
CCC(c1ccc(C(F)(F)F)c(F)c1)n1nc(CO)c2c(=O)[nH]c(N(C)C)nc21 (single isomer, unassigned) [Example 144, (R)- or (S)-6-(Dimethylamino)-1-(1-(3-fluoro-4-(trifluoromethyl)phenyl)propyl)-3-(hydroxymethyl)-1H-pyrazolo[3,4-d]pyrimidin-4(5H)-one] | 1.7 nM | 3.1 nM
CCC(c1ccc(C(F)(F)F)c(F)c1)n1nc(CO)c2c(=O)[nH]c(N(C)C)nc21 (single isomer, unassigned) [Example 145, (S)- or (R)-6-(Dimethylamino)-1-(1-(3-fluoro-4-(trifluoromethyl)phenyl)propyl)-3-(hydroxymethyl)-1H-pyrazolo[3,4-d]pyrimidin-4(5H)-one] | 0.11 nM | 0.13 nM
CN(C)c1nc2c(c(CO)nn2C(c2ccc(C(F)(F)F)c(F)c2)C2CC2)c(=O)[nH]1 (single isomer, unassigned) [Example 150, (R)- or (S)-1-(Cyclopropyl(3-fluoro-4-(trifluoromelhyl)phenyl)methyl)-6-(dimethylamino)-3-(hydroxymethyl)-1H-pyrazolo[3,4-d]pyrimidin-4(5H)-one] | 0.12 nM | 0.12 nM
CN(C)c1nc2c(c(CO)nn2C(c2ccc(C(F)(F)F)c(F)c2)C2CC2)c(=O)[nH]1 (single isomer, unassigned) [Example 151, (S)- or (R)-1-(Cyclopropyl(3-fluoro-4-(trifluoromethyl)phenyl)methyl)-6-(dimethylamino)-3-(hydroxymethyl)-1H-pyrazolo[3,4-d]pyrimidin-4(5H)-one] | 0.61 nM | 0.79 nM
CC(c1ccc(OC(F)(F)F)cc1)n1nc(CF)c2c(=O)[nH]c(N(C)C)nc21 (single isomer, unassigned) [Example 164, (R)- or (S)-6-(Dimethylammo)-3-(fluoromethyl)-1-(1-(4-(trifluoromethoxy)phenyl)ethyl)-1H-pyrazolo[3,4-d]pyrimidin-4(5H)-one] | 1.7 nM | 2 nM
CC(c1ccc(OC(F)(F)F)c(F)c1)n1nc(CF)c2c(=O)[nH]c(N(C)C)nc21 (single isomer, unassigned) [Example 166, (R)- or (S)-6-(Dimethylamino)-1-(1-(3-fluoro-4-(trifluoromethoxy)phenyl)ethyl)-3-(fluoromethyl)-1H-pyrazolo[3,4-d]pyrimidin-4(5H)-one] | 0.61 nM | 0.91 nM
CC(c1ccc(OC(F)(F)F)c(F)c1)n1nc(CF)c2c(=O)[nH]c(N(C)C)nc21 (single isomer, unassigned) [Example 167, (S)- or (R)-6-(Dimethylamino)-1-(1-(3-fluoro-4-(trifluoromethoxy)phenyl)ethyl)-3-(fluoromethyl)-1H-pyrazolo[3,4-d]pyrimidin-4(5H)-one] | 0.2 nM | 0.18 nM
CC(c1ccc(C(F)(F)F)c(F)c1)n1nc(CF)c2c(=O)[nH]c(N(C)C)nc21 (single isomer, unassigned) [Example 168, (R)- or (S)-6-(Dimethylamino)-1-(1-(3-fluoro-4-(trifluoromethyl)phenyl)ethyl)-3-(fluoromethyl)-1H-pyrazolo[3,4-d]pyrimidin-4(5H)-one] | 5.3 nM | 8.1 nM

More lines, now with the values ahead:

Ki (human PDE2A1) | Ki (Rhesus PDE2A3) | SMILES
0.04 nM | 0.059 nM | CC(C)C(c1ccc(C(F)(F)F)cc1F)n1nc(CO)c2c(=O)[nH]c(N(C)C)nc21 (single isomer, unassigned) [Example 132, (R)- or (S)-6-(Dimethylamino)-1-(1-(2-fluoro-4-(trifluoromethyl)phenyl)-2-methylpropyl)-3-(hydroxymethyl)-1H-pyrazolo[3,4-d]pyrimidin-4(5H)-one]
0.45 nM | 0.6 nM | CC(C)C(c1ccc(C(F)(F)F)cc1F)n1nc(CO)c2c(=O)[nH]c(N(C)C)nc21 (single isomer, unassigned) [Example 133, (S)- or (R)-6-(Dimethylamino)-1-(1-(2-fluoro-4-(trifluoromethyl)phenyl)-2-methylpropyl)-3-(hydroxymethyl)-1H-pyrazolo[3,4-d]pyrimidin-4(5H)-one]
0.6 nM | 0.72 nM | CN(C)c1nc2c(c(CO)nn2C(c2ccc(C(F)(F)F)cc2F)C2CC2)c(=O)[nH]1 (single isomer, unassigned) [Example 135, (S)- or (R)-1-(Cyclopropyl(2-fluoro-4-(trifluoromethyl)phenyl)methyl)-6-(dimethylamino)-3-(hydroxymethyl)-1H-pyrazolo[3,4-d]pyrimidin-4(5H)-one]
0.073 nM | 0.14 nM | CCC(c1ccc(C(C)(F)F)cc1)n1nc(CO)c2c(=O)[nH]c(N(C)C)nc21 (single isomer, unassigned) [Example 137, (S)- or (R)-1-(1-(4-(1,1-Difluoroethyl)phenyl)propyl)-6-(dimethylamino)-3-(hydroxymethyl)-1H-pyrazolo[3,4-d]pyrimidin-4(5H)-one]
0.064 nM | 0.04 nM | CC(C)C(c1ccc(C(C)(F)F)cc1)n1nc(CO)c2c(=O)[nH]c(N(C)C)nc21 (single isomer, unassigned) [Example 139, (S)- or (R)-1-(1-(4-(1,1-Difluoroethyl)phenyl)-2-methylpropyl)-6-(dimethylamino)-3-(hydroxymethyl)-1H-pyrazolo[3,4-d]pyrimidin-4(5H)-one]
0.07 nM | 0.097 nM | CN(C)c1nc2c(c(CO)nn2C(c2ccc(C(C)(F)F)cc2)C2CC2)c(=O)[nH]1 (single isomer, unassigned) [Example 140, (R)- or (S)-1-(Cyclopropyl(4-(1,1-difluoroethyl)phenyl)methyl)-6-(dimethylamino)-3-(hydroxymethyl)-1H-pyrazolo[3,4-d]pyrimidin-4(5H)-one]
0.56 nM | 0.64 nM | CN(C)c1nc2c(c(CO)nn2C(c2ccc(C(C)(F)F)cc2)C2CC2)c(=O)[nH]1 (single isomer, unassigned) [Example 141, (S)- or (R)-1-(Cyclopropyl(4-(1,1-difluoroethyl)phenyl)methyl)-6-(dimethylamino)-3-(hydroxymethyl)-1H-pyrazolo[3,4-d]pyrimidin-4(5H)-one]
2.6 nM | 3.3 nM | CC(c1ccc(OC(F)(F)F)cc1)n1nc(CO)c2c(=O)[nH]c(N(C)C)nc21 (single isomer, unassigned) [Example 148, (R)- or (S)-6-(Dimethylamino)-3-(hydroxymethyl)-1-(1-(4-(trifluoromethoxy)phenyl)ethyl)-1H-pyrazolo[3,4-d]pyrimidin-4(5H)-one]
0.51 nM | 0.46 nM | CC(c1ccc(OC(F)(F)F)cc1)n1nc(CO)c2c(=O)[nH]c(N(C)C)nc21 (single isomer, unassigned) [Example 149, (S)- or (R)-6-(Dimethylamino)-3-(hydroxymethyl)-1-(1-(4-(trifluoromethoxy)phenyl)ethyl)-1H-pyrazolo[3,4-d]pyrimidin-4(5H)-one]
0.57 nM | 0.97 nM | CN(C)c1nc2c(c(CO)nn2C(c2ccc(C(F)F)c(F)c2)C2CC2)c(=O)[nH]1 (single isomer, unassigned) [Example 152, (R)- or (S)-1-(Cyclopropyl(4-(difluoromethyl)-3-fluorophenyl)methyl)-6-(dimethylamino)-3-(hydroxymethyl)-1H-pyrazolo[3,4-d]pyrimidin-4(5H)-one]
0.54 nM | 0.63 nM | CC(C)C(c1ccc(C(F)(F)F)cc1)n1nc(CF)c2c(=O)[nH]c(N(C)C)nc21 (single isomer, unassigned) [Example 162]
0.056 nM | 0.07 nM | CC(C)C(c1ccc(C(F)(F)F)cc1)n1nc(CF)c2c(=O)[nH]c(N(C)C)nc21 (single isomer, unassigned) [Example 163]
0.33 nM | 0.28 nM | CC(c1ccc(OC(F)(F)F)cc1)n1nc(CF)c2c(=O)[nH]c(N(C)C)nc21 (single isomer, unassigned) [Example 165, (S)- or (R)-6-(Dimethylamino)-3-(fluoromethyl)-1-(1-(4-(trifluoromethoxy)phenyl)ethyl)-1H-pyrazolo[3,4-d]pyrimidin-4(5H)-one]
